Reference: ChEMBL document CHEMBL5506073, “Discovery of Novel Ortho-Aminophenol Derivatives Targeting Lipid Peroxidation with Potent Antiferroptotic Activities” (J Med Chem, 2024)
The source made the active and inactive calls. The rule behind the calls is not given here.

Experiments:
HT-1080 [1] = test: Inhibition of RSL3-induced ferroptosis in human HT-1080 cells assessed as cell viability incubated for 24 hrs by CCK8 assay; type: functional, cell-based; conditions: for EC50: HT-1080, 24 h
[2] = Antioxidant activity assessed as DPPH radical scavenging activity at 10 uM incubated for 30 mins by absorbance based assay; type: functional
HT-1080 [3] = test: Inhibition of RSL3-induced ferroptosis in human HT-1080 cells assessed as cell viability at 0.5 uM incubated for 24 hrs by CCK8 assay; type: functional, cell-based

EC50 (HT-1080 [1]) [nM]	SMILES	further results
603	Nc1c(O)cccc1-c1nnc(SCc2ccc3ccccc3c2)o1	–
237	Cn1c(-c2cccc(O)c2N)nc2ccccc21	–
127	CCOC(=O)c1cccc(O)c1N	inhibition (HT-1080 [1]): Dose-Dependent Effect
238	Nc1c(O)cccc1-c1nnc(SCc2ccccc2)o1	–
385	CCCCOC(=O)c1cccc(O)c1N	Activity [2]: Active; inhibition (HT-1080 [3]): Active
2620	Cc1ccc(/C=N/NC(=O)c2cccc(O)c2N)cc1	–
293	Nc1c(O)cccc1-c1nc2cc(Cl)c(Cl)cc2[nH]1	–
> 1000	NNC(=O)c1cccc(O)c1N	–
528	N#Cc1ccc(CSc2nnc(-c3cccc(O)c3N)o2)cc1	–
274	Nc1c(O)cccc1C(=O)N/N=C/c1ccccc1	–
366	Nc1c(O)cccc1-c1nnc(S)o1	–
348	Nc1c(O)cccc1-c1nnc(SCc2ccc(F)cc2)o1	–
388	CC(C)OC(=O)c1cccc(O)c1N	Activity [2]: Active; inhibition (HT-1080 [3]): Active
649	Nc1c(O)cccc1C(=O)N/N=C/c1ccc([N+](=O)[O-])cc1	–
